Measured values published in patent US10053667B2, “Differentiation of human pluripotent stem cells to multipotent neural crest cells” (UNIVERSITY OF GEORGIA RESEARCH FOUNDATION, INC., priority 2010, dated 2018).
“Also recorded” adds a separate entry of the source.

Experiments:
Type in all cases: cell-based, human
WA09 hESCs [1] = assay: hESC differentiation to neural crest-like versus neural progenitor cells, flow cytometry for p75 and Hnk1; conditions: for generation of Hnk1+ p75+ (Hnk1bright p75bright) neural crest-like population: WA09 hESCs treated 15 days, FIG. 2A, factors added to or omitted from SB 431542/BIO media; for proportion of Hnk1bright p75bright cells: dose-response, added to cultures treated with SB 431542 and Noggin, BIO 0-2 µM, Wnt3a 0-50 ng/ml
Protocol: (§1) NPC differentiation was performed as described (18). Briefly, cells were plated on Geltrex-coated plates in defined media without Activin A, supplemented with 20 μM SB 431542 (Tocris) and 500 ng/ml Noggin (R&D systems) for 11 days with or without 2 μM of (2′Z,3′E)-6-Bromoindirubin-3′-oxime (BIO) (GSK3 Inhibitor IX, Calbiochem), or 15 ng/ml Dickkopf (R&D Systems). For direct neural crest differentiation, cells were plated at a density of 1×10^5 cells/cm^2 in defined media lacking Activin A, supplemented with 2 μM BIO and 20 μM SB 431542 (SB media). Media was replaced every day. Additional experiments were performed by adding 25 ng/ml Wnt3a, 500 ng/ml Noggin or 5-50 ng/ml of BMP4 (R&D Systems) to SB media. For peripheral neuron differentiation, neural crest cells were plated in poly-L-ornithine/laminin or Geltrex-coated 4-well chamber slides. The following day, SB media was switched to DMEM/F12 N2 supplemented media with BDNF (10 ng/ml), GDNF (10 ng/ml), NGF (10 ng/ml), neurotrophin-3 (10 ng/ml), ascorbic acid (200 μM) and dbcAMP (0.5 mM). Cells were grown for 10-14 days and assayed by immunocytochemisty. Neural crest cells were cultured in media containing 10% fetal bovine serum and passed every 4-5 days. Osteocyte, adipocyte and chondrocyte differentiation was performed according to manufacturer directions using StemPro Osteogenesis Kit, StemPro Chondrogenesis Differentiation Kit, StemPro Adipogenesis Differentiation Kit (Invitrogen), respectively.
Cells were fixed in 4% paraformaldehyde in phosphate buffered saline (PBS) and stained with primary antibodies listed in attached Table 1 (below). Secondary antibodies were Alexa Fluor 488 and Alexa Fluor 555-conjugated (Invitrogen). DNA was visualized by staining with DAPI. For flow cytometry, one million live cells dissociated with Accutase were re-suspended in PBS and incubated for 30 minutes on ice with primary conjugated antibodies, listed in Table 1. Unconjugated p75 (neurotrophin receptor) and Hnk1 antibodies were detected with Alexa Fluor 633 and Alexa Fluor 488-conjugated secondary antibodies, respectively. Cells were analyzed using the CyAN ADP (Beckman Coulter) and FlowJo software.

WA09 hESCs [2] = assay: hESC differentiation, immunostaining for neural crest markers (p75, Ap2, Hnk1) and NPC markers (Pax6, Sox2)
Protocol: as §1, with “Briefly, cells were plated on Geltrex-coated plates in defined media without Activin A, supplemented with 20 μM SB 431542 (Tocris) and 500 ng/ml Noggin (R&D systems) for 11 days with or without 2 μM of (2′Z,3′E)-6-Bromoindirubin-3′-oxime (BIO) (GSK3 Inhibitor IX, Calbiochem), or 15 ng/ml Dickkopf (R&D Systems). For direct neural crest differentiation, cells were plated at a density of 1×10^5 cells/cm^2 in defined media lacking Activin A, supplemented with 2 μM BIO and 20 μM SB 431542 (SB media).” left out
Cells were fixed in 4% paraformaldehyde in phosphate buffered saline (PBS) and stained with primary antibodies listed in attached Table 1 (below). […] DNA was visualized by staining with DAPI. For flow cytometry, one million live cells dissociated with Accutase were re-suspended in PBS and incubated for 30 minutes on ice with primary conjugated antibodies, listed in Table 1. […] Cells were analyzed using the CyAN ADP (Beckman Coulter) and FlowJo software.

β-catenin signaling = assay: Top-Flash luciferase reporter assay for β-catenin activity in hESCs; conditions: hESC cultures; Top-Flash normalized to Fop-Flash
Protocol: Data is expressed as the fold-increase in luciferase activity over untreated cells after normalization to the Fop-Flash control. All assays were performed in triplicate and represented as +/−standard deviation. (B) Top-Flash activity in hESCs grown in defined media treated with Wnt3a, Dkk1, Wnt3a and Dkk1 or BIO. Experiments were performed in triplicate and represented as +/−standard deviation.

[3] = BIO added to SB 431542 and Noggin (Smad inhibition), 12 days

Molecule | generation of Hnk1+ p75+ (Hnk1bright p75bright) neural crest-like population (WA09 hESCs [1]) | proportion of Hnk1bright p75bright cells (WA09 hESCs [1]) | other results
O=C1Nc2cc(Br)ccc2/C1=C1/Nc2ccccc2/C1=N\O [BIO, (2′Z,3′E)-6-Bromoindirubin-3′-oxime] | ineffective | increased the proportion of Hnk1^bright p75^bright cells in a dose-dependent manner | formation of Pax6+ cells (WA09 hESCs [2]; [3]): suppresses this; also recorded: severely inhibited the formation of Pax6^+ cells; percentage of p75+ cells (WA09 hESCs [2]; [3]): generates p75+ Pax6− neural crest-like cells; also recorded: markedly increasing the percentage of p75^+ cells; Sox2 expression (WA09 hESCs [2]; immunostaining, Smad signaling suppressed, range of BIO concentrations): dose-dependent response; activation of β-catenin-dependent luciferase reporter (canonical Wnt pathway) (β-catenin signaling): activates β-catenin signaling; also recorded: efficiently activates the canonical Wnt pathway
NC(=O)c1ccc(-c2nc(-c3ccc4c(c3)OCO4)c(-c3ccccn3)[nH]2)cc1 [SB 431542] | ineffective | – | –
BMP4: bone morphogenic protein added to SB media (R&D Systems) (protein, UniProt P12644 293-408, looked up) Bone morphogenetic protein 4: SPKHHSQRARKKNKNCRRHSLYVDFSDVGWNDWIVAPPGYQAFYCHGDCPFPLADHLNSTNHAIVQTLVNSVNSSIPKACCVPTELSAISMLYLDEYDKVVLKNYQEMVVEGCGCR | suppressed the transition to an Hnk1^bright p75^bright state | – | –
Wnt3a: recombinant Wnt protein, Wnt signaling promoter (protein, UniProt P56704 19-352, looked up) Protein Wnt-3a: SYPIWWSLAVGPQYSSLGSQPILCASIPGLVPKQLRFCRNYVEIMPSVAEGIKIGIQECQHQFRGRRWNCTTVHDSLAIFGPVLDKATRESAFVHAIASAGVAFAVTRSCAEGTAAICGCSSRHQGSPGKGWKWGGCSEDIEFGGMVSREFADARENRPDARSAMNRHNNEAGRQAIASHMHLKCKCHGLSGSCEVKTCWWSQPDFRAIGDFLKDKYDSASEMVVEKHRESRGWVETLRPRYTYFKVPTERDLVYYEASPNFCEPNPETGSFGTRDRTCNVSSHGIDGCDLLCCGRGHNARAERRREKCRCVFHWCCYVSCQECTRVYDVHTCK | can substitute for BIO | increased the proportion of Hnk1^bright p75^bright cells in a dose-dependent manner | –
Dickkopf: a Wnt antagonist (R&D Systems) (protein, UniProt O94907 32-266, looked up) Dickkopf-related protein 1: TLNSVLNSNAIKNLPPPLGGAAGHPGSAVSAAPGILYPGGNKYQTIDNYQPYPCAEDEECGTDEYCASPTRGGDAGVQICLACRKRRKRCMRHAMCCPGNYCKNGICVSSDQNHFRGEIEETITESFGNDHSTLDGYSRRTTLSSKMYHTKGQEGSVCLRSSDCASGLCCARHFWSKICKPVLKEGQVCTKHRRKGSHGLEIFQRCYCGEGLSCRIQKDHHQASNSSRLHTCQRH | – | – | p75bright cells in NPC cultures (WA09 hESCs [1]; NPC cultures obtained by treatment with Noggin and SB 431542): decreases the p75bright population; also recorded: severely reduced the low level of p75^bright cells
Noggin: BMP inhibitor protein (R&D systems) (protein, UniProt Q13253 28-232, looked up) Noggin: QHYLHIRPAPSDNLPLVDLIEHPDPIFDPKEKDLNETLLRSLLGGHYDPGFMATSPPEDRPGGGGGAAGGAEDLAELDQLLRQRPSGAMPSEIKGLEFSEGLAQGKKQRLSKKLRRKLQMWLWSQTFCPVLYAWNDLGSRFWPRYVKVGSCFSKRSCSVPEGMVCKPSKSVHLTVLRWRCQRRGGQRCGWIPIQYPIISECKCSC | no major impact | – | –
